# In PMC8579695, “The Stringent Response Inhibits 70S Ribosome Formation in Staphylococcus aureus by Impeding GTPase-Ribosome Interactions” (mBio, 2021):
# Where two headings read alike, the source gives them in different places.
# How the values were obtained:
# RbgA = RbgA (Staphylococcus aureus, UniProt A0A0H2XK72); assay: DRaCALA binding of 32P-labeled nucleotides to 6×His-tagged RbgA; details: for Bmax, RbgA: Bmax values indicate the fraction bound
# Description: FIG 1 Nucleotide binding characteristics of RA-GTPases. (A) Schematic representation of the domain structure of Era, RsgA, RbgA, and HflX from S. aureus. The conserved GTPase domain (G domain) is colored in green, and accessory domains are shown. (B) Determination of binding affinities and Kd values for ^32P-labeled GTP, GDP, ppGpp, and pppGpp with purified recombinant 6×His-tagged RbgA using DRaCALA, as previously described ([36]). Each point is the mean average of at least three technical replicates, and error bars indicate standard deviations. (C) Binding assay (DRaCALA) of recombinant RbgA binding to ^32P-labeled GTP, ppGpp, and pppGpp in the presence of an excess of cold competitor (GTP, GDP, ppGpp, pppGpp, or ATP). All experiments were carried out in triplicate, with error bars representing standard deviations.
# (§1) The RA-GTPases RsgA, Era, RbgA, and HflX can bind to the guanosine nucleotides GTP, GDP, ppGpp, and pppGpp. Our previous work observed higher binding affinities for ppGpp over GTP, pointing toward a difference in binding between 5′ di- or triphosphate nucleotides ([27]). […] Furthermore, these previous experiments were performed using recombinant proteins fused to large MBP tags, which could impact binding affinity determination. To examine the nucleotide binding affinities of these RA-GTPases for GDP in comparison to ppGpp, pppGpp, and GTP, and in the absence of a large tag, we used a differential radial capillary action of ligand assay (DRaCALA) with recombinant RsgA, RbgA, Era, and HflX fused to a smaller 6× His tag (Fig. 1B; see also Fig. S2A to C in the supplemental material) ([36]). In each case, the affinities of 5′ diphosphate-containing GDP and ppGpp were similar in the low μM range and were 2- to 6-fold higher than the affinities of either GTP or pppGpp (Table 1).
# (§2) The synthesis of (p)ppGpp and differential radial capillary action of ligand assay (DRaCALA) binding and competition assays were performed as described previously ([27]), using recombinant, 6×His-tagged protein at the concentrations specified in the figure legends.
# Era = Era (Staphylococcus aureus, UniProt Q2FGF6); assay: DRaCALA binding of 32P-labeled nucleotides to 6×His-tagged Era; details: for Bmax, Era: Bmax values indicate the fraction bound
# Chain of Era (Q2FGF6 whole entry): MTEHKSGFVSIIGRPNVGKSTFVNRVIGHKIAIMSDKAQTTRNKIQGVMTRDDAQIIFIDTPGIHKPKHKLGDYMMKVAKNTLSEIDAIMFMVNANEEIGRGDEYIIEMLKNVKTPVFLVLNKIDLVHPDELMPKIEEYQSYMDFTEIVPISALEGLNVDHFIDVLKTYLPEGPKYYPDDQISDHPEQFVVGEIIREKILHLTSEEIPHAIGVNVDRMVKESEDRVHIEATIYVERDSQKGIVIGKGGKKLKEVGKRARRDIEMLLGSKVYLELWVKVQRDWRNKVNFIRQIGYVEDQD
# Description: as §1
# (§3) Supplementary file : FIG S2 Examination of the binding of GDP, ppGpp, GTP, and pppGpp to RA-GTPases by DRaCALA. (A to C) Determination of binding affinities and Kd values for ^32P-labeled nucleotides to purified recombinant 6×His-tagged RsgA (A), Era (B), and HflX (C). Kd values were determined from the binding curves as previously described ([36]). (D to F) DRaCALA binding assay of recombinant RsgA (D), Era (E), and HflX (F) binding to ^32P-labeled GTP, ppGpp, and pppGpp in the presence or absence of 100 μM cold competitors (GTP, GDP, ppGpp, pppGpp, and ATP). All experiments were carried out in triplicate, with error bars representing standard deviations. Download FIG S2, TIF file, 0.9 MB.
# as §2
# RsgA = RsgA (Staphylococcus aureus, UniProt P67682); assay: DRaCALA binding of 32P-labeled nucleotides to 6×His-tagged RsgA; details: for Bmax, RsgA: Bmax values indicate the fraction bound
# Chain of RsgA (P67682 whole entry): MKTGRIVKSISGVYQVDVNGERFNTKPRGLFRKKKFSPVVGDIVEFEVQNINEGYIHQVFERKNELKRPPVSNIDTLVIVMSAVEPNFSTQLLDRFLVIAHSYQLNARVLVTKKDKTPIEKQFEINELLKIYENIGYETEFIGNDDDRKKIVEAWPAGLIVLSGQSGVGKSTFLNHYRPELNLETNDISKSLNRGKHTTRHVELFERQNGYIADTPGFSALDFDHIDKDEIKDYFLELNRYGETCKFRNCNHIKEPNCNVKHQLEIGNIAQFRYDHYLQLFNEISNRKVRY
# Description: as §1, §3, §2
# Chain of RbgA (A0A0H2XK72 entry or part of it): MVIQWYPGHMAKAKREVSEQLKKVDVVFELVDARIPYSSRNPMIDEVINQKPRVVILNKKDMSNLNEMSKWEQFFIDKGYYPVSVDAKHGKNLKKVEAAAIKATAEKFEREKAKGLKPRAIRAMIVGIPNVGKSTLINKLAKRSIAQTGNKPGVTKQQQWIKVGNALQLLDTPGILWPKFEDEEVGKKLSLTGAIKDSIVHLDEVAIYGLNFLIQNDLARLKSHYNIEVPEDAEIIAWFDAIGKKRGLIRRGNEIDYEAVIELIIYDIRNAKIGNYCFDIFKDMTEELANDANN
SMILES,Kd (RbgA),"Bmax, RbgA (RbgA; mean ± SEM)",Kd (Era),"Bmax, Era (Era; mean ± SEM)",Kd (RsgA),"Bmax, RsgA (RsgA; mean ± SEM)","Kd (RbgA; mean ± SEM, 32P-labeled nucleotide, 6×His-tagged protein, read-out: Kd, RbgA)","Kd (Era; mean ± SEM, 32P-labeled nucleotide, 6×His-tagged protein, read-out: Kd, Era)","Kd (RsgA; mean ± SEM, 32P-labeled nucleotide, 6×His-tagged protein, read-out: Kd, RsgA)"
Nc1nc2c(ncn2[C@@H]2O[C@H](COP(=O)(O)OP(=O)(O)OP(=O)(O)O)[C@@H](OP(=O)(O)OP(=O)(O)O)[C@H]2O)c(=O)[nH]1 [pppGpp],13.8 ± 4 µM,0.4 ± 0.0,13.9 ± 4.7 µM,0.2 ± 0.0,10.1 ± 2.2 µM,0.4 ± 0.0,–,–,–
Nc1nc2c(ncn2[C@@H]2O[C@H](COP(=O)(O)OP(=O)(O)O)[C@@H](OP(=O)(O)OP(=O)(O)O)[C@H]2O)c(=O)[nH]1 [ppGpp],–,0.6 ± 0.0,–,0.4 ± 0.0,–,0.9 ± 0.0,2.9 ± 0.4 µM,4.2 ± 0.6 µM,2.2 ± 0.2 µM
